Several values for one entry are separate records, joined by “and”; a condition that tells them apart may be missing. Equal entries are not always repeated. No end group written: not given here.
Tests used:
[1] = test system: regulatory CD4+ FoxP3+ T cells (Tregs); assay: Cytokine response by multiplex xMAP, Tregs; type: cell-based, human; conditions: CD4+CD25+ Tregs, 2 µM, 24 h
Method: Colorectal adenocarcinoma Caco-2 cell line (ATCC HTB-37) was cultured in complete DMEM/F12 (1:1) medium containing 10% fetal bovine serum (FBS, Gibco) and 1X antibiotic-antimycotic solution (1XAAS, Invitrogen, Waltham, MA, USA). The acute monocytic leukemia THP-1 line (ATCC TIB-202) was cultured in complete RPMI-1640 medium, containing 10% FBS, 1XAAS, and […]. THP-1 cells were differentiated into pro-inflammatory macrophages (Mφ1) with phorbol 12-myristate 13-acetate (Sigma-Aldrich) for 24 h and subsequently polarized with lipopolysaccharide from E. coli (Sigma-Aldrich) and rhIFN-γ (Sigma-Aldrich) for another 48 h according to previously reported protocol. All cells were cultured in a humidified CO2 incubator (5% CO2, 37 °C). Primary peripheral blood mononuclear cells (PBMCs) collected from a healthy donor were purchased from American Type Culture Collection (ATCC PCS-800-011). CD4^+ T-helper and CD8^+ T cytotoxic cells were isolated from PBMCs by magnetic separation with mouse anti-human CD4-PE (clone 13B8.2, Beckman Coulter Diagnostics, Pasadena, CA, USA) and CD8-PE (clone REA734, Miltenyi Biotec, Bergisch Gladbach, Germany), Anti-PE MicroBeads (Miltenyi Biotec), and LS Separation Columns (Miltenyi Biotec). Isolated CD4^+ and CD8^+ cells were expanded separately with Dynabeads™ Human T-Expander CD3/CD28 (Gibco, Waltham, MA, USA) in RPMI-1640 supplemented with 10% FBS, 1XAAS and 100 U/mL rh-IL-2 (Gibco). Regulatory CD4^+ FoxP3^+ T cells (Tregs) were isolated from PBMCs by magnetic separation with CD4^+CD25^+ Regulatory T Cell Isolation Kit, human (Miltenyi Biotec). Primary CD14^+ blood monocytes were isolated from PBMCs by adherence according to standard technique. Monocyte-derived mature dendritic cells (moDCs) were obtained from CD14^+ blood monocytes according to the previously reported protocol. Briefly, blood monocytes were incubated in complete RPMI-1640 medium, containing 10% FBS, 1XAAS, 800 U/mL rhGM-CSF (Sci-Store, Russia, Moscow) and 500 U/mL rhIL-4 (Sci-Store) for 3 days. Fresh complete RPMI-1640 medium with rhGM-CSF and rhIL-4 was added to the culture on day 3. On day 5, fresh complete RPMI-1640 containing 100 U/mL rhTNF-α (Sigma) as well as 800 U/mL rhGM-CSF and 500 U/mL rhIL-4 was added and the culture was incubated for another 4 days until full maturation.
Caco-2 cells were seeded into the wells of a 48-well plate, coated with 0.1% bovine collagen (Sigma-Aldrich) for 24 h, 3 weeks before the experiment with complete DMEM/F12 (1:1) medium renewal every 2–3 days. Monocytes, moDCs, CD4^+ T-helper and CD8^+ T cytotoxic cells, Mφ1, and Regulatory CD4^+ FoxP3^+ T cells were seeded into the wells of 48-well plates in the complete RPMI-1640 medium supplemented with 10% Human AB serum (HABS, Capricorn Scientific, Ebsdorfergrund, Germany) and 1XAAS 24 h prior to the experiment; medium in Caco-2-containing wells was also replaced with the same medium. After 24 h, half of the medium in each well was replaced by fresh complete RPMI-1640 medium with 10% HABS, supplemented with 4 µM of Lc-def for the sample wells or fresh medium alone for the control wells. Cell cultures were kept in CO2-incubator (5% CO2, 37 °C) for another 24 h. Culture supernatants were collected 24 h later and stored at −70 °C degrees less than one month prior to the analytes assessment. […]

PBMCs = assay: Resazurin-based cytotoxicity assay, PBMCs; type: cell-based, human; conditions: 50 μM peptide, 24 h
Method: The cytotoxic properties of Lc-def and melittin as a control were investigated also by resazurin-based cell cytotoxicity assay. PBMCs and THP-1 cells were seeded in 96-well plates at 2 × 10^6 and 1 × 10^6 cells per well, respectively, in RPMI-1640 supplemented with 10% FBS, and kept in CO2-incubator. After 24 h serial two-fold dilutions of compounds in culture medium were then added to final concentrations from 0.2 to 50 μM. After 24 h of incubation with the peptides, resazurin (Sigma) was added at a final concentration of 0.7 mM, and the plates were incubated overnight (16 h). Fluorescent resorufin was registered using 535/595 filter at PlateReader AF2200 (Eppendorf, Hamburg, Germany). Untreated corresponding cells were used as negative controls. The cell viability was calculated as: cell viability (%) = (Fsample/Fcontrol) × 100%. The experiment was carried out twice in triplicate.

## Lc-def: defensin from lentil Lens culinaris seeds (UniProt:B3F051), recombinant, overexpressed in Escherichia coli (KTCENLSDSFKGPCIPDGNCNKHCKEKEHLLSGRCRDDFRCWCTRNC; disulfide (positions not given here); ends not checked; also: disulfide bonds present, pairing not given here; UniProt B3F051 28-74, looked up)
[1]
  EGF: 4.15 pg/mL
  Eotaxin: <3.23↓ pg/ml
  FGF-2: 34.19 pg/mL
  FLT-3L: 0.62 pg/mL
  Fractalkine: <23.19↓ pg/ml
  G-CSF: 9.93 pg/mL
  GM-CSF: 54.75 pg/mL
  GROa: 29.97 pg/mL
  IFNa2: <4.43↓ pg/ml
  IFNg: 38.55 pg/mL
  IL-1RA: 1.04 pg/mL
  IL-1a: 19.36 pg/mL
  IL-1b: <18.72↓ pg/ml
  IL-2: 4.82 pg/mL
  IL-3: <0.48↓ pg/ml
  IL-4: <0.31↓ pg/ml
  IL-5: <0.24↓ pg/ml
  IL-6: 317 pg/mL and 317.05 pg/mL
  IL-7: <0.33↓ pg/ml
  IL-8: 1247 pg/mL
  IL-9: 5.08 pg/mL
  IL-10: 42.25 pg/mL
  IL-12 (p40): 19.56 pg/mL
  IL-12 (p70): 3.39 pg/mL
  IL-13: 7.95 pg/mL
  IL-15: <1.45↓ pg/ml
  IL-17A: 2.6 pg/mL
  IL-17E/IL-25: <20.59↓ pg/ml
  IL-17F: 51.91 pg/mL
  IL-18: 0.56 pg/mL
  IL-22: 24.29 pg/mL
  IL-27: 84.77 pg/mL
  IP-10: 114.68 pg/mL
  M-GSF: <23.75↓ pg/ml
  MCP-1: 505 pg/mL and 505.45 pg/mL
  MCP-3: 21.04 pg/mL
  MDC: 968.96 pg/mL
  MIG: 479.53 pg/mL
  MIP-1a: 233 pg/mL and 233.56 pg/mL
  MIP-1b: 313.49 pg/mL
  PDGF-AA: <7.38↓ pg/ml
  PDGF-AB/BB: 119.45 pg/mL
  RANTES: 12.31 pg/mL
  TGF-a: 1.25 pg/mL
  TNFa: 97.83 pg/mL
  TNFb: 2.32 pg/mL
  VEGFa: <1.27↓ pg/ml
  sCD40L: 66.54 pg/mL
PBMCs
  cell viability: 100%

Source: publication PMC9503459, “Antifungal Activity, Structural Stability, and Immunomodulatory Effects on Human Immune Cells of Defensin from the Lentil Lens culinaris” (Membranes, 2022)
